Patent US11166942B2 (PRAXIS BIOTECH LLC, priority 2018, dated 2021)
pIC50: −log10 of the molar value. Read-outs that look alike come from different tables or passages of the source.

Tests used:
ATF4 = ATF4 expression inhibition assay (ATF4 5'UTR luciferase reporter, Tg-stressed HEK293T cells); format: cell-based, human; settings: for inhibition at 0.1 µM: read-out: % ATF4 inhibition at 100 nM; for inhibition at 1 µM: read-out: % ATF4 inhibition at 1 μM; for pIC50: read-out: ATF4 inhbition IC50
Description: The ATF4 reporter was prepared by fusing the human full length 5′UTR of ATF4 (NCBI Accession No. BC022088.2) upstream of the firefly luciferase coding sequence lacking the initiator methionine. The fused sequence was cloned into pLenti-EF1a-C-Myc-DDK-IRES-Puro cloning vector (Origen #PS100085) using standard methods. Virus production was carried out by using Lenti-X™ Packaging Single Shots Protocol (Clonetech #631276). Viral particles were used to transduce HEK293T cells (ATCC #CRL-3216, ATCC Manassas, Va.), which were subsequently selected with puromycin to generate stable cell line. Cells were maintained at 37° C. and 5% CO2 in DMEM-F12 (Hyclone #SH30023.02) supplemented with 10% heat-inactivated fetal bovine serum (Gibco #16000-044), 2 mM L-glutamine (Gibco #25030-081), 100 U/ml penicillin, and 100 μg/ml streptomycin (Gibco #15140-122).
HEK293T cells carrying the ATF4 luciferase reporter were plated on 96-well plates (Nunc) at 10,000 cells per well. Cells were treated two days after seeding with 100 nM thapsigargin (Tg) (Sigma-Aldrich #T9033) in the presence of 100 nM or 1 μM. For the assessment of the half-maximal inhibitory concentration (IC50) for selected compounds, dose-response assays were performed. Compounds were serially diluted using DMSO ranging from 0.1 nM to 1 μM. Cells without treatment or cells treated with Tg alone were used as controls. Assay plates containing cells were incubated for 3 hours at 37° C.
Luciferase reactions were performed using Luciferase Assay System (Promega #E1501) as specified by the manufacturer. Luminescence was read with an integration time of 1 s and a gain of 110 using a Cytation-5 multi-mode microplate reader (BioTek). Relative luminescence units were normalized to Tg treatment (0% inhibition) and untreated cells (100% inhibition) and the percentage of ATF4 inhibition was calculated.
Percentages of ATF4 inhibition after induction with Tg in the presence of 100 nM or 1 μM of certain test compounds are shown in Table 2. Also shown in Table 2 is the calculated IC50 for certain test compounds. […] Accordingly, inhibition of ATF4 expression as a result of the test compound indicates suppression of the ISR pathway.

[1] = tested on: Chinese hamster ovary (CHO) cells; assay: Protein translation assay (puromycin labelling, CHO cells); format: cell-based; settings: media alone = 100%; for activity at 1 µM: Cricetulus griseus, CHO
Description: Chinese hamster ovary (CHO) cells were maintained at 37° C. and 5% CO2 in Dulbecco's Modified Eagle's Media (DMEM) supplemented with 10% fetal bovine serum, 2 mM L-glutamine, 100 U/ml penicillin, and 100 μg/ml streptomycin. After reaching 80% of confluence, cells were detached and seeded on 6 well plates in complete media, allowed to recover overnight and treated for 2 hours with 1 μM of the test compound (to assess protein synthesis levels in unstressed condition), or for 1 hour with 100 nM or 1 μM of the test compound and then co-treated with 300 nM Tg and 100 nM or 1 μM of the test compound (to assess the recovery of protein synthesis in a stressed condition). Cells treated with Tg alone were used as controls.
After the 2 hours treatments, media were replaced by adding 10 μg/ml puromycin (Sigma Aldrich #P8833) in complete media for 30 min. Media were removed and cells were lysed with SDS-PAGE lysis buffer. Lysates were transferred to 1.5 ml tubes and sonicated for 3 min and total protein amount were quantified using BCA Protein Assay Kit (Pierce). Equal amount of protein (30 μg) was loaded on SDS-PAGE gels. Proteins were transferred onto 0.2 μm PVDF membranes (BioRad) and probed with primary antibodies diluted in Tris-buffered saline supplemented with 0.1% Tween 20 (Merck #S6996184 505) and 3% bovine serum albumin (Rockland #BSA-50).
Puromycin (12D10) (Merck #MABE343) and β-actin (Sigma Aldrich #A5441) antibodies were used as primary antibody. A HRP-conjugated secondary antibody (Rockland) was employed to detect immune-reactive bands using enhanced chemiluminescence (ECL Western Blotting Substrate, Pierce). Quantification of protein bands was done by densitometry using ImageJ software.
Percent increase of protein synthesis in unstressed cells (without Tg treatment) in the presence of media alone or certain test compounds is shown in Table 3 The percentage levels were normalized to the media alone condition, which correspond to 100% protein synthesis.
Percent recovery of protein synthesis in stressed cells (with Tg treatment) due to the test compounds at 100 nM or 1 μM is also shown in Table 3. The levels were normalized to the media alone and to Tg alone conditions, which correspond to 100% and 0% respectively.

[2] = Homo sapiens, HEK-293T, 3 h, 100 nM test compound, 100 nM thapsigargin, 3 hours, HEK293T ATF4 luciferase reporter
[3] = Homo sapiens, HEK-293T, 3 h, 1 μM test compound, 100 nM thapsigargin, 3 hours, HEK293T ATF4 luciferase reporter
[4] = 2 h, unstressed CHO cells, 1 μM, 2 hours, read-out: % Protein synthesis in unstressed cells (1 μM test compound)
[5] = CHO cells stressed with 300 nM Tg, 1 μM compound, Tg alone = 0%, read-out: % Recovery of protein expression (1 μM test compound)
[6] = Homo sapiens, HEK-293T, 3 h, 100 nM thapsigargin, 3 hours, HEK293T ATF4 luciferase reporter

| Structure (SMILES) | inhibition at 0.1 µM (ATF4; [2]) | inhibition at 1 µM (ATF4; [3]) | pIC50 (ATF4; [6]) | other results |
| --- | --- | --- | --- | --- |
| O=C(NC1CCN(NCC(O)COc2ccc(Cl)c(F)c2)CC1)c1cc2cc(Cl)ccc2o1 (centres unmarked) [Compound 26, 5-chloro-N-(1-((3-(4-chloro-3-fluorophenoxy)-2-hydroxypropyl)amino)piperidin-4-yl)benzofuran-2-carboxamide] | 37.5% | 49.4% | – | – |
| O=C(NN1CCN(C[C@H](O)COc2ccc(Cl)c(F)c2)CC1)c1ccc2cc(Cl)ccc2c1 [Compound 61, (S)-6-chloro-N-(4-(3-(4-chloro-3-fluorophenoxy)-2-hydroxypropyl)piperazin-1-yl)-2-naphthamide] | 72.4% | 86.6% | 7.53 | activity at 1 µM [1, 4]: 195%; activity at 1 µM [1, 5]: 171% |
| O=C(NN1CCN(CC(O)COc2ccc(Cl)c(F)c2)CC1)c1ccc2cc(Cl)ccc2n1 (centres unmarked) [Compound 15, 6-chloro-N-(4-(3-(4-chloro-3-fluorophenoxy)-2-hydroxypropyl)piperazin-1-yl)quinoline-2-carboxamide] | – | – | – | activity at 1 µM [1, 4]: 119%; activity at 1 µM [1, 5]: 248%; inhibition at 0.1 µM (ATF4; Homo sapiens, HEK-293T, 3 h): 87.8%; inhibition at 1 µM (ATF4; Homo sapiens, HEK-293T, 3 h): 100%; pIC50 (ATF4; Homo sapiens, HEK-293T, 3 h): 7.91 |
| O=C(COc1ccc(Cl)c(F)c1)NN1CCC(NC(=O)c2cc3cc(Cl)ccc3o2)CC1 [Compound 5, 5-chloro-N-(1-(2-(4-chloro-3-fluorophenoxy)acetamido)piperidin-4-yl)benzofuran-2-carboxamide] | 85.7% | 93.7% | 7.73 | % Recovery of protein expression (100 nM test compound) ([1]; CHO cells stressed with 300 nM Tg, 100 nM compound, Tg alone = 0%): −7.1%; activity at 1 µM [1, 4]: 135%; activity at 1 µM [1, 5]: 110% |
| O=C(NN1CCN(CC(O)COc2ccc(C(F)(F)F)cc2)CC1)c1ccc2cc(Cl)ccc2n1 (centres unmarked) [Compound 71, 6-chloro-N-(4-(2-hydroxy-3-(4-(trifluoromethyl)phenoxy)propyl)piperazin-1-yl)quinoline-2-carboxamide] | – | – | – | inhibition at 0.1 µM (ATF4; Homo sapiens, HEK-293T, 3 h): 83.4%; inhibition at 1 µM (ATF4; Homo sapiens, HEK-293T, 3 h): 89.9%; pIC50 (ATF4; Homo sapiens, HEK-293T, 3 h): > 7.00 |
| O=C(COc1ccc(Cl)c(F)c1)NN1CCC(NCC(O)COc2ccc(Cl)c(F)c2)CC1 (centres unmarked) [Compound 8, 2-(4-chloro-3-fluorophenoxy)-N-(4-((3-(4-chloro-3-fluorophenoxy)-2-hydroxypropyl)amino)piperidin-1-yl)acetamide] | – | – | – | activity at 1 µM [1, 4]: 121%; activity at 1 µM [1, 5]: 52.1%; inhibition at 0.1 µM (ATF4; Homo sapiens, HEK-293T, 3 h): 44.2%; inhibition at 1 µM (ATF4; Homo sapiens, HEK-293T, 3 h): 70.9%; pIC50 (ATF4; Homo sapiens, HEK-293T, 3 h): 6.82 |
| O=C(COc1ccc(Cl)c([N+](=O)[O-])c1)NC1CCN(NC(=O)COc2ccc(Cl)c(F)c2)CC1 [Compound 39, 2-(4-chloro-3-fluorophenoxy)-N-(4-(2-(4-chloro-3-nitrophenoxy)acetamido)piperidin-1-yl)acetamide] | – | – | – | inhibition at 0.1 µM (ATF4; Homo sapiens, HEK-293T, 3 h): 91%; inhibition at 1 µM (ATF4; Homo sapiens, HEK-293T, 3 h): 91.5%; pIC50 (ATF4; Homo sapiens, HEK-293T, 3 h): > 7.00 |
| O=C(COc1ccc(Cl)c(F)c1)NN1CCC(NC(=O)c2nc3cc(Cl)ccc3s2)CC1 [Compound 10, 5-chloro-N-(1-(2-(4-chloro-3-fluorophenoxy)acetamido)piperidin-4-yl)benzo[d]thiazole-2-carboxamide] | 68.2% | 87.2% | > 7.00 | – |
| O=C(NN1CCN(CC(O)COc2ccc(Cl)c(F)c2)CC1)C1Cc2cc(Cl)ccc2O1 (centres unmarked) [Compound 13, 5-chloro-N-(4-(3-(4-chloro-3-fluorophenoxy)-2-hydroxypropyl)piperazin-1-yl)-2,3-dihydrobenzofuran-2-carboxamide] | – | – | – | % ATF4 inhibition at 100 nM (ATF4; 100 nM test compound, 100 nM thapsigargin, 3 hours, HEK293T ATF4 luciferase reporter): 60.7%; pIC50 (ATF4; 100 nM thapsigargin, 3 hours, HEK293T ATF4 luciferase reporter): > 7.00; % ATF4 inhibition at 1 μM (ATF4; 1 μM test compound, 100 nM thapsigargin, 3 hours, HEK293T ATF4 luciferase reporter): 86.7% |
| O=C(NC1CCN(NCC(O)COc2ccc(Cl)c(F)c2)CC1)C1Cc2cc(Cl)ccc2O1 (centres unmarked) [Compound 70, 5-chloro-N-(1-((3-(4-chloro-3-fluorophenoxy)-2-hydroxypropyl)amino)piperidin-4-yl)-2,3-dihydrobenzofuran-2-carboxamide] | 0.4% | 21.4% | < 6.00 | – |
| O=C(NC1CCN(NCC(O)COc2ccc(Cl)c(F)c2)CC1)c1ccc2cc(Cl)ccc2n1 (centres unmarked) [Compound 25, 6-chloro-N-(1-((3-(4-chloro-3-fluorophenoxy)-2-hydroxypropyl)amino)piperidin-4-yl)quinoline-2-carboxamide] | 8.1% | 8.5% | < 6.00 | – |
| O=C(COc1ccc(Cl)c(F)c1)NC1CCN(NC(=O)c2nc3cc(Cl)ccc3s2)CC1 [Compound 9, 5-chloro-N-(4-(2-(4-chloro-3-fluorophenoxy)acetamido)piperidin-1-yl)benzo[d]thiazole-2-carboxamide] | 77.1% | 86.8% | > 7.00 | – |
| O=C(COc1ccc(Cl)c(F)c1)NC1CCN(NCC(O)COc2ccc(Cl)c(F)c2)CC1 (centres unmarked) [Compound 7, 2-(4-chloro-3-fluorophenoxy)-N-(1-((3-(4-chloro-3-fluorophenoxy)-2-hydroxypropyl)amino)piperidin-4-yl)acetamide] | 16.1% | 13.9% | < 6.00 | – |
| O=C(COc1ccc(C(F)(F)F)cc1)NC1CCN(NC(=O)COc2ccc(C(F)(F)F)cc2)CC1 [Compound 35, N,N′-(piperidine-1,4-diyl)bis(2-(4-(trifluoromethyl)phenoxy)acetamide)] | 92.1% | 91.6% | > 7.00 | – |
| O=C(COc1ccc(Cl)c(F)c1)NC1CCN(NC(=O)C2Cc3cc(Cl)ccc3O2)CC1 (centres unmarked) [Compound 11, 5-chloro-N-(4-(2-(4-chloro-3-fluorophenoxy)acetamido)piperidin-1-yl)-2,3-dihydrobenzofuran-2-carboxamide] | 67.8% | 90.5% | > 7.00 | – |
| O=C(COc1ccc(Cl)c(F)c1)NN1CCC(NC(=O)C2Cc3cc(Cl)ccc3O2)CC1 (centres unmarked) [Compound 12, 5-chloro-N-(1-(2-(4-chloro-3-fluorophenoxy)acetamido)piperidin-4-yl)-2,3-dihydrobenzofuran-2-carboxamide] | 69.4% | 88.5% | > 7.00 | – |
